Results on seven molecules are retold here after patent US4160839A, “Carbamyltriazole insecticides” (priority 1976, dated 1979).

Holding throughout (type): in vivo
The subject of assay [1] is Mexican bean beetle (MBB) larvae. Kind of assay: Spray test, Mexican bean beetle (MBB) larvae on bean leaves. As to conditions: approx. 48 h after spraying. The method, then:
(§1) Three 5 oz paper cups containing Henderson dwarf lima bean plants and one 5 oz paper cup containing Orange Gem nasturtiums, all growing in vermiculite, are placed on a turntable and sprayed to thorough wetness with 25 ml of a solution of the candidate chemical at the appropriate concentration. Nasturtiums were already infested with 50-100 bean aphids (BA). A bean plant in one paper cup was already infested with 50-100 two-spotted mites (TSM). Leaves from the two remaining bean plants are removed following spraying and placed in disposable petri dishes with 5 southern armyworm (SA) larvae in one petri dish, and 5 Mexican bean beetle (MBB) larvae in the other petri dish. The rating is done approximately 48 hours after spraying as follows:
(§2) So as to obtain more meaningful results, all tests are performed at the same time of day, whenever possible, usually in the forenoon. Temperature,illumination and humidity are the same in all tests. Atmospheric pressure is not controlled.
(§3) Results obtained with the novel insecticides of this invention at various concentrations of active chemical are tabulated below. The ratings given are for averages of three or more replicates. The oral lethal dose for 50 percent kill of laboratory rats is also recorded in the table. In conducting the toxicity tests on rats, 0.01 g of active chemical per ml in corn oil is employed as an additive to the diet of the animals.

In assay [2] the test system is southern armyworm (SA) larvae. Kind of assay: Spray test, southern armyworm (SA) larvae on bean leaves. As to conditions: approx. 48 h after spraying. The method, then: as §1, §2, §3
For another assay, the system named is bean aphids (BA). Put plainly: Spray test, bean aphids (BA) on nasturtiums. As to conditions: approx. 48 h after spraying. The method, then: as §1, §2, §3
The subject of the next assay is two-spotted mites (TSM). Put plainly: Spray test, two-spotted mites (TSM) on bean plants. As to conditions: approx. 48 h after spraying. The method, then:
as §1, §2, §3

For assay [3], the system named is Southern Corn Rootworm (SCR). Put plainly: Southern Corn Rootworm (SCR) soil treatment test, root feeding damage on corn. Set-up: scale not given here. As to conditions: nine days after treatment. The procedure:
Three 5 oz paper cups planted each with one kernel of DeKalb XL-361 corn are treated two days after planting with 10 ml of a 125 ppm solution of the candidate compound. Compounds with high efficacy are treated at lower concentrations. The experiment is a 4×5 factorial in a randomized complete block design with three replications. The tests are evaluated nine days after treatment. The roots are inspected under a dissecting microscope and rated as follows:
as §2, §3

Regarding `C=C(Br)CSc1nc(C2CC2)nn1C(=O)N(C)C`, the “MBB rating (larvae dead)” value in assay [1] (500 ppm) was 2 (26-50% larvae dead). Further, in assay [2] (500 ppm), the “SA rating (larvae dead)” value was 0 (no larvae dead). For the same molecule, the “BA rating (dead)” value in the assay with bean aphids (BA) (4 ppm) is 0 (none dead); in the assay with bean aphids (BA) (8 ppm), 2 (26-50% dead); in the assay with bean aphids (BA) (15 ppm), 4 (76-99% dead); with bean aphids (BA) (31 ppm), 5 (100% dead); in the assay with bean aphids (BA) (62 ppm) it was 5 (100% dead); in the assay with bean aphids (BA) (125 ppm) it was 5 (100% dead). Besides, the “BA rating (dead)” value in the assay with bean aphids (BA) (250 ppm) and in the assay on bean aphids (BA) (500 ppm) was 5 (100% dead) in each case. Also, the “TSM rating (dead adults)” value in the assay on two-spotted mites (TSM) (500 ppm) is 2 (26-50% dead adults). The “SCR Rating (root feeding damage)” value in assay [3] (50 ppm) is 0.3; in assay [3] (100 ppm) it was 4.3.

Turning to `C=C(Br)CSc1nc(C(C)(C)C)nn1C(=O)N(C)C`, the “MBB rating (larvae dead)” value in assay [1] (500 ppm) is 2 (26-50% larvae dead). The “SA rating (larvae dead)” value in assay [2] (500 ppm) was 0 (no larvae dead). Also, the “BA rating (dead)” value in the assay with bean aphids (BA) (4 ppm) is listed as 4 (76-99% dead); with bean aphids (BA) (8 ppm) it was 4 (76-99% dead); with bean aphids (BA) (15 ppm) it was 5 (100% dead); in the assay with bean aphids (BA) (31 ppm) it was 5 (100% dead); in the assay with bean aphids (BA) (62 ppm), 5 (100% dead); with bean aphids (BA) (125 ppm), 5 (100% dead). Further, the “BA rating (dead)” value in the assay on bean aphids (BA) (250 ppm) and with bean aphids (BA) (500 ppm) was 5 (100% dead) each time. The “TSM rating (dead adults)” value in the assay on two-spotted mites (TSM) (15 ppm) is recorded as 0 (no dead adults); in the assay on two-spotted mites (TSM) (31 ppm), 0 (no dead adults); in the assay with two-spotted mites (TSM) (62 ppm) it was 0 (no dead adults); with two-spotted mites (TSM) (125 ppm) it was 0 (no dead adults); with two-spotted mites (TSM) (250 ppm) it was 0 (no dead adults); in the assay on two-spotted mites (TSM) (500 ppm) it was 4 (76-99% dead adults).

For `C=CC(C)Sc1nc(C(C)(C)C)nn1C(=O)N(C)C` (centres unmarked) [R=1-methylallyl, R'=tert.butyl], the “MBB rating (larvae dead)” value is recorded as 0 (no larvae dead) in assay [1] (15 ppm); 0 (no larvae dead) in assay [1] (31 ppm); 0 (no larvae dead) in assay [1] (62 ppm); 1 (1 -25% larvae dead) in assay [1] (125 ppm); 1 (1 -25% larvae dead) in assay [1] (250 ppm); 5 (100% larvae dead) in assay [1] (500 ppm). In addition, the “SA rating (larvae dead)” value in assay [2] (15 ppm) is 0 (no larvae dead); in assay [2] (31 ppm) it was 0 (no larvae dead); in assay [2] (62 ppm), 0 (no larvae dead); in assay [2] (125 ppm), 0 (no larvae dead); in assay [2] (250 ppm) it was 0 (no larvae dead); in assay [2] (500 ppm) it was 4 (76-99% larvae dead). The “BA rating (dead)” value with bean aphids (BA) (15 ppm), in the assay with bean aphids (BA) (31 ppm), in the assay on bean aphids (BA) (62 ppm), in the assay on bean aphids (BA) (125 ppm), with bean aphids (BA) (250 ppm) and in the assay on bean aphids (BA) (500 ppm) was 5 (100% dead) throughout. Further, the “TSM rating (dead adults)” value with two-spotted mites (TSM) (500 ppm) is listed as 0 (no dead adults).

On to `CN(C)C(=O)n1nc(C(C)(C)C)nc1SCC(Cl)=C(Cl)Cl` [R=2,3,3-trichloro-allyl, R'=tert.butyl], for which the “MBB rating (larvae dead)” value in assay [1] (500 ppm) is given as 0 (no larvae dead). In addition, the “SA rating (larvae dead)” value in assay [2] (500 ppm) was 0 (no larvae dead). The “BA rating (dead)” value is 3 (51-75% dead) with bean aphids (BA) (2 ppm); 3 (51-75% dead) in the assay with bean aphids (BA) (4 ppm); 4 (76-99% dead) with bean aphids (BA) (8 ppm); 5 (100% dead) in the assay with bean aphids (BA) (15 ppm); 5 (100% dead) in the assay on bean aphids (BA) (31 ppm); 5 (100% dead) with bean aphids (BA) (62 ppm). Besides, the “BA rating (dead)” value in the assay with bean aphids (BA) (125 ppm) is 5 (100% dead); in the assay on bean aphids (BA) (250 ppm) it was 5 (100% dead); in the assay with bean aphids (BA) (500 ppm), 4 (76-99% dead). Moreover, the “TSM rating (dead adults)” value in the assay on two-spotted mites (TSM) (500 ppm) is reported as 0 (no dead adults).

In the case of `C=C(Cl)CSc1nc(C(C)(C)C)nn1C(=O)N(C)C` [R=2-chloroallyl, R'=tert.butyl], the “MBB rating (larvae dead)” value in assay [1] (500 ppm) is listed as 2 (26-50% larvae dead). Besides, the “SA rating (larvae dead)” value in assay [2] (500 ppm) was 0 (no larvae dead). The “BA rating (dead)” value is 4 (76-99% dead) in the assay on bean aphids (BA) (2 ppm); 4 (76-99% dead) in the assay on bean aphids (BA) (4 ppm); 4 (76-99% dead) in the assay with bean aphids (BA) (8 ppm); 5 (100% dead) in the assay on bean aphids (BA) (15 ppm); 5 (100% dead) in the assay with bean aphids (BA) (31 ppm); 5 (100% dead) with bean aphids (BA) (62 ppm). The “BA rating (dead)” value with bean aphids (BA) (125 ppm), with bean aphids (BA) (250 ppm) and with bean aphids (BA) (500 ppm) was 5 (100% dead) each time. Further, in the assay on two-spotted mites (TSM) (500 ppm), the “TSM rating (dead adults)” value is given as 0 (no dead adults).

In the case of `C=C(C)CSc1nc(C(C)(C)C)nn1C(=O)N(C)C` [R=2-methylallyl, R'=tert.butyl], the “MBB rating (larvae dead)” value in assay [1] (500 ppm) is reported as 2 (26-50% larvae dead). The “SA rating (larvae dead)” value in assay [2] (500 ppm) is 0 (no larvae dead). Also, the “BA rating (dead)” value in the assay with bean aphids (BA) (2 ppm) is listed as 1 (1-25% dead); in the assay with bean aphids (BA) (4 ppm), 4 (76-99% dead); with bean aphids (BA) (8 ppm), 4 (76-99% dead); in the assay on bean aphids (BA) (15 ppm), 5 (100% dead); in the assay on bean aphids (BA) (31 ppm), 5 (100% dead); in the assay with bean aphids (BA) (62 ppm), 5 (100% dead). In addition, the “BA rating (dead)” value in the assay with bean aphids (BA) (125 ppm), in the assay on bean aphids (BA) (250 ppm) and in the assay on bean aphids (BA) (500 ppm) was 5 (100% dead) in each case. The “TSM rating (dead adults)” value in the assay on two-spotted mites (TSM) (500 ppm) was 0 (no dead adults). Moreover, the “SCR Rating (root feeding damage)” value in assay [3] (100 ppm) came out at 1.3.

Consider `C#CCSc1nc(CCC)nn1C(=O)N(C)C` [R=2-propynyl, R'=propyl], for which the “MBB rating (larvae dead)” value is 0 (no larvae dead) in assay [1] (15 ppm); 1 (1 -25% larvae dead) in assay [1] (31 ppm); 3 (51-75% larvae dead) in assay [1] (62 ppm); 5 (100% larvae dead) in assay [1] (125 ppm); 5 (100% larvae dead) in assay [1] (250 ppm); 5 (100% larvae dead) in assay [1] (500 ppm). The “SA rating (larvae dead)” value in assay [2] (15 ppm) is 0 (no larvae dead); in assay [2] (31 ppm), 0 (no larvae dead); in assay [2] (62 ppm) it was 0 (no larvae dead); in assay [2] (125 ppm), 0 (no larvae dead); in assay [2] (250 ppm) it was 0 (no larvae dead); in assay [2] (500 ppm) it was 5 (100% larvae dead). In addition, the “BA rating (dead)” value is listed as 0 (none dead) in the assay on bean aphids (BA) (2 ppm); 0 (none dead) with bean aphids (BA) (4 ppm); 1 (1-25% dead) in the assay with bean aphids (BA) (8 ppm); 5 (100% dead) in the assay on bean aphids (BA) (15 ppm); 5 (100% dead) with bean aphids (BA) (31 ppm); 5 (100% dead) in the assay with bean aphids (BA) (62 ppm). The “BA rating (dead)” value with bean aphids (BA) (125 ppm), in the assay with bean aphids (BA) (250 ppm) and in the assay on bean aphids (BA) (500 ppm) was 5 (100% dead) throughout. Further, the “TSM rating (dead adults)” value in the assay with two-spotted mites (TSM) (500 ppm) is on record as 0 (no dead adults). For the same molecule, the “SCR Rating (root feeding damage)” value is 1.3 in assay [3] (25 ppm), 2.7 in assay [3] (50 ppm) and 3.7 in assay [3] (100 ppm).
